Common to all, as to type: functional
The species entered for assay [1] is Mus musculus. The assay can be described thus: Compound was evaluated for irreversible antagonist activity in Mouse vas deference(MVD) agonist (morphine) IC50 after antagonist treatment (50 nM) divided by the agonist control IC50.
The species named for assay [2] is Mus musculus. The experiment in a line: Compound was evaluated for irreversible antagonist activity in Mouse vas deference(MVD) agonist (DADLE) IC50 after antagonist treatment (50 nM) divided by the agonist control IC50.
For assay [3], the species on record is Cavia porcellus. The experiment in a line: Compound was evaluated for agonist activity in Guinea pig ileum (GPI).
The species named for assay [4] is Cavia porcellus. The experiment in a line: Compound was evaluated for irreversible antagonist activity in Guinea pig ileum (GPI) agonist (morphine) IC50 after antagonist treatment (20 nM) divided by the agonist control IC50.
For assay [5], the species on record is Cavia porcellus. The assay can be described thus: Compound was evaluated for irreversible antagonist activity in Guinea pig ileum (GPI) agonist (ethylketazocine) IC50 after antagonist treatment (20 nM) divided by the agonist control IC50.
Assay [6] is filed under the species Mus musculus. The experiment in a line: Compound was evaluated for agonist activity in Mouse vas deferens (MVD).
The species named for assay [7] is Cavia porcellus. The experiment in a line: Compound was evaluated for irreversible antagonist activity in Guinea pig ileum (GPI)agonist (ethylketazocine) IC50 after antagonist treatment (200 nM) divided by the agonist control IC50.
The species named for assay [8] is Cavia porcellus. The assay can be described thus: Compound was evaluated for irreversible antagonist activity in Guinea pig ileum (GPI) agonist (morphine) IC50 after antagonist treatment (200 nM) divided by the agonist control IC50.
The species named for assay [9] is Cavia porcellus. The assay can be described thus: Compound was evaluated for irreversible antagonist activity in Guinea pig ileum (GPI) agonist (morphine) IC50 after antagonist treatment (200 nM) divided by the agonist control IC50 (Tissue was treated with 200 nM compound rather than 20 nM).
The species named for assay [10] is Cavia porcellus. The experiment in a line: Compound was evaluated for agonist activity in Guinea pig ileum (GPI) partial agonist (potency ratio is based on IC10 value for compound and morphine).

For the compound `O=C(CI)N[C@@H]1CCC2C3Cc4ccc(O)c5c4C2(CCN3CC2CC2)[C@H]1O5` (some centres undefined), the IC50 ratio came out at 15.6 in the assay filed under Mus musculus [1], 2.4 in the assay listed under Mus musculus [2], 3.05 in the assay filed under Cavia porcellus [4] and 1.03 in the assay listed under Cavia porcellus [5]. The Potency ratio in the assay filed under Cavia porcellus [3] is 6.27; in the assay filed under Mus musculus [6], 25.3.
Take `COC(=O)/C=C/C(=O)N[C@@H]1CCC2C3Cc4ccc(O)c5c4C2(CCN3CC2CC2)[C@H]1O5` (some centres undefined): the IC50 ratio came to 4.12 in the assay filed under Mus musculus [1]; 2.29 in the assay filed under Mus musculus [2]; 0.5 in the assay listed under Cavia porcellus [7]; 1.58 in the assay listed under Cavia porcellus [4]; 2.77 in the assay filed under Cavia porcellus [8]; 1.33 in the assay filed under Cavia porcellus [5]. The Potency ratio was determined as 17.62 in the assay filed under Cavia porcellus [3] and 18 in the assay listed under Mus musculus [6].
On to `Oc1ccc2c3c1O[C@H]1[C@H](N=C=S)CCC4C(C2)N(CC2CC2)CCC341` (some centres undefined), for which the IC50 ratio in the assay listed under Mus musculus [1] was 11.5; in the assay filed under Mus musculus [2], 1.96; in the assay filed under Cavia porcellus [9] it was 70; in the assay filed under Cavia porcellus [7], 2.29; in the assay filed under Cavia porcellus [4] it was 4.8; in the assay listed under Cavia porcellus [5], 1.58. For the same compound, the Potency ratio in the assay listed under Cavia porcellus [10] is 3.1; in the assay filed under Mus musculus [6], 4.5.
`CN(CCCl)[C@@H]1CCC2C3Cc4ccc(O)c5c4C2(CCN3CC2CC2)[C@H]1O5` (some centres undefined): the IC50 ratio was determined as 51 in the assay filed under Mus musculus [1], 46.77 in the assay filed under Mus musculus [2], 125 in the assay listed under Cavia porcellus [4] and 6.25 in the assay filed under Cavia porcellus [5]. Also, the Potency ratio in the assay listed under Cavia porcellus [3] was 154; in the assay listed under Mus musculus [6], 380.
As for `COC(=O)/C=C/C(=O)N[C@@H]1CC[C@@]2(O)[C@H]3Cc4ccc(O)c5c4[C@@]2(CCN3CC2CC2)[C@H]1O5`, the IC50 ratio turned out to be 3.9 in the assay filed under Mus musculus [1], 1.8 in the assay listed under Mus musculus [2], 6 in the assay listed under Cavia porcellus [4] and 1 in the assay listed under Cavia porcellus [5]. Also, the values for the Potency ratio in the assay listed under Cavia porcellus [3] and in the assay filed under Mus musculus [6] were 5 and 4.4, respectively.
